Measurements taken from patent US6906205B2, “Spiro and dispiro 1,2,4-trioxolane antimalarials” (Medicines for Malaria Venture MMV, priority 2002, dated 2005).

What follows are molecules tested on ANKA strain of P. berghei (assay: single dose STI in vivo screen in infected mice). Details: percent reduction in parasitemia day 3 post-infection; single 3 mg/kg po in SSV.
Set-up: species or system Plasmodium berghei
Description: In the single dose STI in vivo screen, Moro SPF or NMRI mice infected with the ANKA strain of P. berghei (groups of 3-5 mice) were treated on day one post-infection with trioxolanes dissolved or suspended in 3% ethanol and 7% Tween 80. […] SSV consists of 0.5% w/v CMC, 0.5% v/v benzyl alcohol, 0.4% v/v Tween 80, and 0.9% w/v sodium chloride in water. Antimalarial activity was measured by percent reduction in parasitemia on day three post-infection and survival times compared to an untreated control group. Survival to day 30 post-infection is considered to be a cure. […] Other factors influencing antimalarial activity include the stability of carbon radicals formed by β-scission subsequent to the initial electron transfer to the peroxide bond and the influence of steric effects remote from the peroxide bond on the interactions between carbon radicals and potential drug targets.

Structure (SMILES) | Activity (%) 3 mg/kg SSV po
Cn1ccnc1S(=O)(=O)C[C@H]1CC[C@]2(CC1)OO[C@]1(O2)C2CC3CC(C2)CC1C3 [OZ310] | 38%
CCNC(=O)NC[C@H]1CC[C@]2(CC1)OO[C@]1(O2)C2CC3CC(C2)CC1C3 [OZ291] | 34%
Cn1nnnc1SC[C@H]1CC[C@]2(CC1)OO[C@]1(O2)C2CC3CC(C2)CC1C3 [OZ331] | 66%
O=CN1CCN(C[C@H]2CC[C@]3(CC2)OO[C@]2(O3)C3CC4CC(C3)CC2C4)CC1 [OZ303] | 69%

Same assay, conditions: percent reduction in parasitemia day 3 post-infection; single 10 mg/kg po in 3% ethanol and 7% Tween 80; mice

Structure (SMILES) | Activity (%) po
O=C(Nc1ccc(Cl)cc1)N1CCC2(CC1)OOC1(O2)C2CC3CC(C2)CC1C3 (stereo not shown) [OZ192] | 38%
O=C(Nc1ccccc1)N1CCC2(CC1)OOC1(O2)C2CC3CC(C2)CC1C3 (stereo not shown) [OZ102] | 92%
CC(C)(O)[C@H]1CC[C@]2(CC1)OOC1(O2)C2CC3CC(C2)CC1C3 (stereo partly shown) [OZ108] | 0/0/0%
Cc1ccc(NC(=O)N2CCC3(CC2)OOC2(O3)C3CC4CC(C3)CC2C4)cc1 (stereo not shown) [OZ142] | 0%
O=C(c1ccncc1)N1CCC2(CC1)OOC1(O2)C2CC3CC(C2)CC1C3 (stereo not shown) [OZ100] | 61%
O=C(COc1ccc(Cl)cc1)N1CCC2(CC1)OOC1(O2)C2CC3CC(C2)CC1C3 (stereo not shown) [OZ101] | 44%

Same assay, conditions: percent reduction in parasitemia day 3 post-infection; single 10 mg/kg po in SSV

Structure (SMILES) | Activity (%) 10 mg/kg SSV po
Cn1ccnc1S(=O)(=O)C[C@H]1CC[C@]2(CC1)OO[C@]1(O2)C2CC3CC(C2)CC1C3 [OZ310] | 81%
CCNC(=O)NC[C@H]1CC[C@]2(CC1)OO[C@]1(O2)C2CC3CC(C2)CC1C3 [OZ291] | 98%
Cn1nnnc1SC[C@H]1CC[C@]2(CC1)OO[C@]1(O2)C2CC3CC(C2)CC1C3 [OZ331] | 99.47%
O=CN1CCN(C[C@H]2CC[C@]3(CC2)OO[C@]2(O3)C3CC4CC(C3)CC2C4)CC1 [OZ303] | 99.01%

Same assay, conditions: percent reduction in parasitemia day 3 post-infection; single 10 mg/kg sc in 3% ethanol and 7% Tween 80; mice

Structure (SMILES) | Activity (%) sc
O=C(Nc1ccc(Cl)cc1)N1CCC2(CC1)OOC1(O2)C2CC3CC(C2)CC1C3 (stereo not shown) [OZ192] | 99.98%
O=C(Nc1ccccc1)N1CCC2(CC1)OOC1(O2)C2CC3CC(C2)CC1C3 (stereo not shown) [OZ102] | 99.97%
CC(C)(O)[C@H]1CC[C@]2(CC1)OOC1(O2)C2CC3CC(C2)CC1C3 (stereo partly shown) [OZ108] | 0/0/0%
Cc1ccc(NC(=O)N2CCC3(CC2)OOC2(O3)C3CC4CC(C3)CC2C4)cc1 (stereo not shown) [OZ142] | 99.98%
O=C(c1ccncc1)N1CCC2(CC1)OOC1(O2)C2CC3CC(C2)CC1C3 (stereo not shown) [OZ100] | 80%
O=C(COc1ccc(Cl)cc1)N1CCC2(CC1)OOC1(O2)C2CC3CC(C2)CC1C3 (stereo not shown) [OZ101] | 99.97%

Same assay, conditions: percent reduction in parasitemia day 3 post-infection; single po dose in standard suspending vehicle (SSV); mice

Structure (SMILES) | Activity (%) SSVpo
O=C(Nc1ccc(Cl)cc1)N1CCC2(CC1)OOC1(O2)C2CC3CC(C2)CC1C3 (stereo not shown) [OZ192] | 45%
O=C(Nc1ccccc1)N1CCC2(CC1)OOC1(O2)C2CC3CC(C2)CC1C3 (stereo not shown) [OZ102] | 73%
CC(C)(O)[C@H]1CC[C@]2(CC1)OOC1(O2)C2CC3CC(C2)CC1C3 (stereo partly shown) [OZ108] | 0/0/0%
Cc1ccc(NC(=O)N2CCC3(CC2)OOC2(O3)C3CC4CC(C3)CC2C4)cc1 (stereo not shown) [OZ142] | 2%
O=C(c1ccncc1)N1CCC2(CC1)OOC1(O2)C2CC3CC(C2)CC1C3 (stereo not shown) [OZ100] | 36%
O=C(COc1ccc(Cl)cc1)N1CCC2(CC1)OOC1(O2)C2CC3CC(C2)CC1C3 (stereo not shown) [OZ101] | 0%

Same assay, conditions: single 10 mg/kg po in 3% ethanol and 7% Tween 80; untreated control 5.6 ± 0.3

Structure (SMILES) | Survival (days) po
O=C(Nc1ccc(Cl)cc1)N1CCC2(CC1)OOC1(O2)C2CC3CC(C2)CC1C3 (stereo not shown) [OZ192] | 6.0 days
O=C(Nc1ccccc1)N1CCC2(CC1)OOC1(O2)C2CC3CC(C2)CC1C3 (stereo not shown) [OZ102] | 7.0 days
Cc1ccc(NC(=O)N2CCC3(CC2)OOC2(O3)C3CC4CC(C3)CC2C4)cc1 (stereo not shown) [OZ142] | 6.0 days
O=C(c1ccncc1)N1CCC2(CC1)OOC1(O2)C2CC3CC(C2)CC1C3 (stereo not shown) [OZ100] | 6.7 days
O=C(COc1ccc(Cl)cc1)N1CCC2(CC1)OOC1(O2)C2CC3CC(C2)CC1C3 (stereo not shown) [OZ101] | 6.3 days

Same assay, conditions: single 10 mg/kg po in SSV

Structure (SMILES) | Survival (days) 10 mg/kg SSV po
Cn1ccnc1S(=O)(=O)C[C@H]1CC[C@]2(CC1)OO[C@]1(O2)C2CC3CC(C2)CC1C3 [OZ310] | 7.8 days
CCNC(=O)NC[C@H]1CC[C@]2(CC1)OO[C@]1(O2)C2CC3CC(C2)CC1C3 [OZ291] | 8.0 days
Cn1nnnc1SC[C@H]1CC[C@]2(CC1)OO[C@]1(O2)C2CC3CC(C2)CC1C3 [OZ331] | 9.0 days
O=CN1CCN(C[C@H]2CC[C@]3(CC2)OO[C@]2(O3)C3CC4CC(C3)CC2C4)CC1 [OZ303] | 8.6 days

Same assay, conditions: single 10 mg/kg sc in 3% ethanol and 7% Tween 80; untreated control 5.6 ± 0.3

Structure (SMILES) | Survival (days) sc
O=C(Nc1ccc(Cl)cc1)N1CCC2(CC1)OOC1(O2)C2CC3CC(C2)CC1C3 (stereo not shown) [OZ192] | 13.7 days
O=C(Nc1ccccc1)N1CCC2(CC1)OOC1(O2)C2CC3CC(C2)CC1C3 (stereo not shown) [OZ102] | 19.7 days
Cc1ccc(NC(=O)N2CCC3(CC2)OOC2(O3)C3CC4CC(C3)CC2C4)cc1 (stereo not shown) [OZ142] | 14.3 days
O=C(c1ccncc1)N1CCC2(CC1)OOC1(O2)C2CC3CC(C2)CC1C3 (stereo not shown) [OZ100] | 7.0 days
O=C(COc1ccc(Cl)cc1)N1CCC2(CC1)OOC1(O2)C2CC3CC(C2)CC1C3 (stereo not shown) [OZ101] | 13 days

Same assay, conditions: single po dose in SSV; untreated control 5.6 ± 0.3

Structure (SMILES) | Survival (days) SSVpo
O=C(Nc1ccc(Cl)cc1)N1CCC2(CC1)OOC1(O2)C2CC3CC(C2)CC1C3 (stereo not shown) [OZ192] | 7.0 days
O=C(Nc1ccccc1)N1CCC2(CC1)OOC1(O2)C2CC3CC(C2)CC1C3 (stereo not shown) [OZ102] | 6.7 days
CC(C)(O)[C@H]1CC[C@]2(CC1)OOC1(O2)C2CC3CC(C2)CC1C3 (stereo partly shown) [OZ108] | 5.0 days
Cc1ccc(NC(=O)N2CCC3(CC2)OOC2(O3)C3CC4CC(C3)CC2C4)cc1 (stereo not shown) [OZ142] | 6.3 days
O=C(c1ccncc1)N1CCC2(CC1)OOC1(O2)C2CC3CC(C2)CC1C3 (stereo not shown) [OZ100] | 6.3 days
O=C(COc1ccc(Cl)cc1)N1CCC2(CC1)OOC1(O2)C2CC3CC(C2)CC1C3 (stereo not shown) [OZ101] | 5.3 days
